This is an account of results in paper PMC4456386, “Ligand Recognition of the Major Birch Pollen Allergen Bet v 1 is Isoform Dependent” (PLoS ONE, 2015).

Where “and” joins values, the source holds several entries; their conditions need not be identical. Identical values can stand only once.

T1 sequence (P43177 whole entry): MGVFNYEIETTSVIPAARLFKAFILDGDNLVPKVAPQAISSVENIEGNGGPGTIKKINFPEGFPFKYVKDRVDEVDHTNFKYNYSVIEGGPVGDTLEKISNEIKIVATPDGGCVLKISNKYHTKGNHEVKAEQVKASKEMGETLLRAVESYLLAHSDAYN

For the first data set, the system named is serum IgE binding to surface-coated Bet v 1a, Bet v 1d and Bet v 1m. Kind of data set: Indirect ELISA for IgE binding to Bet v 1 isoforms. Details: species or system human. The conditions noted are these: 5-fold molar excess of ligand; isoforms a, d, m. The source says: Fifteen sera of birch pollen-allergic subjects were collected, tested, and pooled according to the guideline of the European Medicines Agency (EMEA/CHMP/BWP/304831/2007). The serum pool is routinely used for batch-release testing of birch pollen-derived allergenic products at the Paul-Ehrlich-Institut. The same serum pool was used for both, ELISA and mediator release assays.
For IgE-ELISA experiments, Maxisorp plates (Nunc via Fisher Scientific) were coated overnight at room temperature with 50 ng/100 μl recombinant Bet v 1 isoforms a, d, or m with a 5-fold molar excess of quercetin-3-O-sophorose, rutin, quercetin, quercetin-3-O-glucoside, quercetin-3-O-galactoside, or sophorose, respectively, in phosphate-buffered saline (PBS). After blocking with PBS containing 2% bovine serum albumin (BSA) these plates and an uncoated control were incubated with a dilution series of a serum pool of birch-pollen allergic subjects for 1 h at room temperature with PBS containing 0.05% Tween 20 and 0.1% BSA. Allergen-specific human IgE was detected with a horseradish peroxidase-conjugated mouse anti-human IgE antibody (Clone B3102E8, Southern biotech via Biozol, Eching, Germany) diluted 1:1000. 3,3′,5,5′-tetramethylbenzidine (Roth, Karlsruhe) was used as substrate for horseradish peroxidase, and the absorbance at 450 nm was measured after stopping the reaction with 25% H2SO4.
In general terms: An ELISA detects its analyte on a solid surface through an enzyme-linked reagent.
Turning to `C[C@@H]1O[C@@H](OC[C@H]2O[C@@H](Oc3c(-c4ccc(O)c(O)c4)oc4cc(O)cc(O)c4c3=O)[C@H](O)[C@@H](O)[C@@H]2O)[C@H](O)[C@H](O)[C@H]1O` [rutin], the “influence of ligand on IgE binding of Bet v 1 isoforms” value was “did not modify IgE-binding”.

For `OC[C@H]1O[C@@H](O[C@H]2C(O)O[C@H](CO)[C@@H](O)[C@@H]2O)[C@H](O)[C@@H](O)[C@@H]1O` (stereo partly shown) [sophorose], the “influence of ligand on IgE binding of Bet v 1 isoforms” value is recorded as “did not modify IgE-binding”.

A further data set concerns the target T1, Bet v 1d (Betula pendula, UniProt P43177).
T1 construct: made in house
Kind of data set: UV/VIS equilibrium titration of flavonoids with Bet v 1d.
Conditions: not given
The format is binding, Betula verrucosa. The method, then: (§1) All flavonoids and Bet v 1 isoforms were dissolved in 50 mM sodium phosphate, 50 mM NaCl, 10% (v/v) DMSO, pH 7.0, to a final concentration of 10 to 20 μM in 500 μl. Absorption spectra from 200–800 nm were recorded at 25°C in a 1 cm quartz cuvette (Hellma GmbH) using a 8453 UV-visible spectrophotometer (Agilent).
(§2) To further characterize flavonoid binding to Bet v 1, titration experiments were performed by adding small amounts of concentrated Bet v 1 isoform a, d or m to different flavonoids. Changes of flavonoid absorption occurring at specific wavelengths were plotted against the protein concentration. Prior to curve-fitting, absorbance data were corrected for dilution. If possible, the equilibrium dissociation constant (K d) was determined by non-linear regression analysis of the data with GraFit-5 (Version 5.0, Erithacus Software, UK) using the following Eq (1): ΔA=ΔAmax/2Q[(B+Q+Kd)-((B+Q+Kd)^2-[…])] (1) ΔA max, maximum change in absorbance at specific wavelengths; B, Bet v 1a concentration; Q, total flavonoid concentration.
As for `O=c1c(O)c(-c2ccc(O)c(O)c2)oc2cc(O)ccc12` [Fisetin, fisetin], the Kd turned out to be 13.9 ± 2.1 µM.

For the compound `O=c1c(O)c(-c2cc(O)c(O)c(O)c2)oc2cc(O)cc(O)c12` [Myricetin, myricetin], the Kd came out at 1.2 ± 0.2 µM.

In turn, `O=C1C[C@@H](c2ccc(O)cc2)Oc2cc(O)cc(O)c21` [Naringenin, naringenin] had a Kd of 37.7 ± 6.4 µM.

Staying with this data set, now noted: Bet v 1d.
With `O=c1c(O)c(-c2cc(O)c(O)c(O)c2)oc2cc(O)cc(O)c12` [Myricetin, myricetin], the “fold higher affinity than flavone” value came out at 60 fold.

The data set is the same for the next values; noted with them: complex with Bet v 1d.
`O=c1c(O)c(-c2ccc(O)c(O)c2)oc2cc(O)ccc12` [Fisetin, fisetin]: the “Absorption maxima, Bet v 1d:Flavonoid” value was found to be 371 nm.

Take `O=c1c(O)c(-c2cc(O)c(O)c(O)c2)oc2cc(O)cc(O)c12` [Myricetin, myricetin]: the “Absorption maxima, Bet v 1d:Flavonoid” value was 382 nm.

On to `O=C1C[C@@H](c2ccc(O)cc2)Oc2cc(O)cc(O)c21` [Naringenin, naringenin], for which the “Absorption maxima, Bet v 1d:Flavonoid” value came to 325 nm.

For another data set, the target named is T2, Bet v 1a (Betula pendula, UniProt P15494).
T2 construct: made in house
T2 sequence (P15494 whole entry): as the sequence (P43177 whole entry) above, with I8T, V31F, N58S, V92I, C113S, V114I, N126D counted along it
Kind of data set: 1H-15N HSQC NMR titration (chemical shift perturbation) of 15N-Bet v 1a. The format is binding, Betula verrucosa. Particulars: Bet v 1a, one value per residue with Δδnorm > 0.08 ppm (residue named left of the cell); Int. Ex. = intermediate exchange. The procedure:
(§3) All NMR experiments were performed at 298 K in 50 mM sodium phosphate buffer, 50 mM NaCl, pH 7.0, 10% deuterium oxide (^2H2O) with ^15N-uniformly labelled Bet v 1 isoforms using Bruker Avance 700 MHz and Avance 800 MHz spectrometers with cryogenically cooled triple-resonance probes equipped with pulsed field-gradient capabilities. NMR data were processed using NMRPipe and visualized with NMRViewJ [89]. Three-dimensional ^15N-edited NOESY (nuclear Overhauser enhancement spectroscopy, mixing times 120 ms) experiments to assign chemical shifts were obtained with 500 μM ^15N-labeled samples of Bet v 1 isoform d or m and yielded 91% of assigned residues for Bet v 1d and 89% for Bet v 1m. The sequence-specific assignments of the amide resonances of Bet v 1a are reported elsewhere.
(§4) Interaction of Q3OS with the Bet v 1 isoforms was measured by incubating 700 μM Q3OS with 50 μM of each ^15N-labeled Bet v 1 isoform in 50 mM sodium phosphate, 50 mM NaCl buffer, pH 7.0.
(§5) For titration experiments all other flavonoids were dissolved in deuterated DMSO, while glucose and galactose were dissolved in 50 mM sodium phosphate buffer, 50 mM NaCl, pH 7.0, 10% deuterium oxide and titrated stepwise to a final excess of up to 17-fold to protein samples (ca. 100 μM). […] CSPs for ligand binding were calculated based on Eq (2): […] (2) ΔδHN and ΔδN, chemical shift differences of amide proton and nitrogen resonances, respectively, in ppm.
(§6) K d values for flavonoid binding were determined with NMRViewJ [89]. All analysable amino acid residues that were unaffected by DMSO addition and showing CSPs > 0.08 ppm were fitted to a quadratic binding curve with default settings, and an average K d app was calculated (Table 1 and S1–S3 Tables). The CSPs of all residues showing CSPs > 0.04 ppm were mapped either on models of Bet v 1d and Bet v 1m or on the Bet v 1a structure (pdb code 1BV1, [29]).
As for `O=c1c(O)c(-c2ccc(O)c(O)c2)oc2cc(O)ccc12` [Fisetin, fisetin], the Kd per residue result is “Int. Ex”.

For the compound `O=c1c(O)c(-c2cc(O)c(O)c(O)c2)oc2cc(O)cc(O)c12` [Myricetin, myricetin], the Kd per residue result is given as “Int. Ex”.

For `O=C1C[C@@H](c2ccc(O)cc2)Oc2cc(O)cc(O)c21` [Naringenin, naringenin], the Kd per residue entry is listed as “Int. Ex”.

The data set is the same for the next values; noted with them: Dissociation constant Kd (averaged Kd app), NMR, Bet v 1a; average of all analysable residues with CSPs > 0.08 ppm, ± standard deviation.
Turning to `O=c1c(O)c(-c2ccc(O)c(O)c2)oc2cc(O)ccc12` [Fisetin, fisetin], the Kd was 37.2 ± 6.5 µM.

As for `O=c1c(O)c(-c2cc(O)c(O)c(O)c2)oc2cc(O)cc(O)c12` [Myricetin, myricetin], the Kd was found to be 14.6 ± 6.5 µM.

For `O=C1C[C@@H](c2ccc(O)cc2)Oc2cc(O)cc(O)c21` [Naringenin, naringenin], the Kd was ~30 µM and 30 µM.

The data set is the same for the next values; noted with them: Kd per residue, Bet v 1a, one value per residue with Δδnorm > 0.08 ppm (residue named left of the cell); Int. Ex. = intermediate exchange.
On to `O=c1c(O)c(-c2ccc(O)c(O)c2)oc2cc(O)ccc12` [Fisetin, fisetin], for which the Kd was 18.2 µM and 39.4 µM and 72.5 µM and 16.1 µM and 53.5 µM and 48 µM and 36.8 µM and 18.6 µM and 28.6 µM and 17.4 µM and 16.8 µM.

For the compound `O=c1c(O)c(-c2cc(O)c(O)c(O)c2)oc2cc(O)cc(O)c12` [Myricetin, myricetin], the Kd is 5 µM and 11.6 µM and 26.9 µM.

In another data set the target is T3, Bet v 1m (Betula pendula, UniProt P43186).
T3 construct: made in house
T3 sequence (P43186 whole entry): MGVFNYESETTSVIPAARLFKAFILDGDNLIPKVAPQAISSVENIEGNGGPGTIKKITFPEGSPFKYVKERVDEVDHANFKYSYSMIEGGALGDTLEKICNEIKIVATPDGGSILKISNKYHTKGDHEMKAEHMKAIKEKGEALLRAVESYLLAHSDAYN
Kind of data set: UV/VIS equilibrium titration of flavonoids with Bet v 1m. The format is binding, Betula verrucosa.
Conditions: not given
The method, then: as §1, §2
The compound `O=c1c(O)c(-c2ccc(O)c(O)c2)oc2cc(O)ccc12` [Fisetin, fisetin] gave a Kd of 68.6 ± 12.4 µM.

`O=C1C[C@@H](c2ccc(O)cc2)Oc2cc(O)cc(O)c21` [Naringenin, naringenin]: the Kd is 28.1 ± 0.8 µM.

Staying with this data set, now noted: complex with Bet v 1m.
As for `O=c1c(O)c(-c2ccc(O)c(O)c2)oc2cc(O)ccc12` [Fisetin, fisetin], the “Absorption maxima, Bet v 1m:Flavonoid” value was 370 nm.

For the compound `O=C1C[C@@H](c2ccc(O)cc2)Oc2cc(O)cc(O)c21` [Naringenin, naringenin], the “Absorption maxima, Bet v 1m:Flavonoid” value is 322 nm.

Test system in another data set: not listed separately
Kind of data set: UV/VIS absorption spectra of unbound flavonoids. The class given is physicochemical. Particulars: pH 7.0. The method, then:
as §1
`O=c1c(O)c(-c2ccc(O)c(O)c2)oc2cc(O)ccc12` [Fisetin, fisetin]: the “Absorption maxima, Flavonoid” value is reported as 368 nm.

`O=c1c(O)c(-c2cc(O)c(O)c(O)c2)oc2cc(O)cc(O)c12` [Myricetin, myricetin]: the “Absorption maxima, Flavonoid” value is recorded as 378 nm.

Take `O=C1C[C@@H](c2ccc(O)cc2)Oc2cc(O)cc(O)c21` [Naringenin, naringenin]: the “Absorption maxima, Flavonoid” value was found to be 325 nm.

The target of another data set is T3, Bet v 1m. Kind of data set: 1H-15N HSQC NMR titration (chemical shift perturbation) of 15N-Bet v 1m. The conditions noted are these: Dissociation constant Kd (averaged Kd app), NMR, average of all analysable residues with CSPs > 0.08 ppm, ± standard deviation. The format is binding, Betula verrucosa. The procedure: as §3, §4, §5, §6
For `O=c1c(O)c(-c2ccc(O)c(O)c2)oc2cc(O)ccc12` [Fisetin, fisetin], the Kd amounted to 85.1 ± 21.7 µM.

For the compound `O=c1c(O)c(-c2cc(O)c(O)c(O)c2)oc2cc(O)cc(O)c12` [Myricetin, myricetin], the Kd amounted to 99.3 ± 19.4 µM.

For `O=C1C[C@@H](c2ccc(O)cc2)Oc2cc(O)cc(O)c21` [Naringenin, naringenin], the Kd was 22.1 ± 5.5 µM.

The same data set, now with this note: Kd per residue, one value per residue with Δδnorm > 0.08 ppm (residue named left of the cell), Int. Ex. = intermediate exchange.
`O=c1c(O)c(-c2ccc(O)c(O)c2)oc2cc(O)ccc12` [Fisetin, fisetin]: the Kd is 150 µM and 28.9 µM and 109 µM and 111 µM and 81.3 µM and 20.4 µM.

Regarding `O=c1c(O)c(-c2cc(O)c(O)c(O)c2)oc2cc(O)cc(O)c12` [Myricetin, myricetin], the Kd was 75.3 µM and 161 µM and 24.4 µM and 88.5 µM and 126 µM and 120 µM.

With `O=C1C[C@@H](c2ccc(O)cc2)Oc2cc(O)cc(O)c21` [Naringenin, naringenin], the Kd was 8.2 µM and 13.6 µM and 19 µM and 39.6 µM and 27.1 µM.

The same data set, now with this note: one value per residue with Δδnorm > 0.08 ppm (residue named left of the cell), Int. Ex. = intermediate exchange.
For `O=c1c(O)c(-c2ccc(O)c(O)c2)oc2cc(O)ccc12` [Fisetin, fisetin], the Kd per residue entry is on record as “Int. Ex”.

Take `O=c1c(O)c(-c2cc(O)c(O)c(O)c2)oc2cc(O)cc(O)c12` [Myricetin, myricetin]: the Kd per residue entry is reported as “Int. Ex”.

In the case of `O=C1C[C@@H](c2ccc(O)cc2)Oc2cc(O)cc(O)c21` [Naringenin, naringenin], the Kd per residue entry is reported as “Int. Ex”.

The next data set concerns the target T2, Bet v 1a. Kind of data set: UV/VIS equilibrium titration of flavonoids with Bet v 1a. The class given is binding, Betula verrucosa. The conditions noted are these: Bet v 1a. The procedure: as §1, §2
In the case of `O=c1c(O)c(-c2cc(O)c(O)c(O)c2)oc2cc(O)cc(O)c12` [Myricetin, myricetin], the “fold higher affinity than flavone” value stood at 15 fold.

Still in this data set, the particulars now being: Dissociation constant Kd, UV/VIS titration, Bet v 1a, 298 K, pH 7.0, 10% DMSO; error = standard error of fit.
The compound `O=c1c(O)c(-c2ccc(O)c(O)c2)oc2cc(O)ccc12` [Fisetin, fisetin] came in with a Kd of 14.3 ± 1.1 µM.

`O=c1c(O)c(-c2cc(O)c(O)c(O)c2)oc2cc(O)cc(O)c12` [Myricetin, myricetin] displayed a Kd of 4.2 ± 0.7 µM.

Compound `O=C1C[C@@H](c2ccc(O)cc2)Oc2cc(O)cc(O)c21` [Naringenin, naringenin] registered a Kd of 60.6 ± 3.2 µM.

Staying with this data set, now noted: complex with Bet v 1a.
Take `O=c1c(O)c(-c2ccc(O)c(O)c2)oc2cc(O)ccc12` [Fisetin, fisetin]: the “Absorption maxima, Bet v 1a:Flavonoid” value is 372 nm.

Regarding `O=c1c(O)c(-c2cc(O)c(O)c(O)c2)oc2cc(O)cc(O)c12` [Myricetin, myricetin], the “Absorption maxima, Bet v 1a:Flavonoid” value was 387 nm.

Take `O=C1C[C@@H](c2ccc(O)cc2)Oc2cc(O)cc(O)c21` [Naringenin, naringenin]: the “Absorption maxima, Bet v 1a:Flavonoid” value is listed as 325 nm.
